Laboratory results taken from patent publication US6977254B2, “Hydroxy cyclohexenyl phenyl carboxamides tocolytic oxytocin receptor antagonists” (Wyeth, priority 2001, dated 2005).

Biological target: T1, human oxytocin receptor (Homo sapiens, UniProt P30559)
T1 construct: host or cells: CHO cells, stably transfected (pcDNA3.1 vector); membranes
T1 sequence (P30559 1-389): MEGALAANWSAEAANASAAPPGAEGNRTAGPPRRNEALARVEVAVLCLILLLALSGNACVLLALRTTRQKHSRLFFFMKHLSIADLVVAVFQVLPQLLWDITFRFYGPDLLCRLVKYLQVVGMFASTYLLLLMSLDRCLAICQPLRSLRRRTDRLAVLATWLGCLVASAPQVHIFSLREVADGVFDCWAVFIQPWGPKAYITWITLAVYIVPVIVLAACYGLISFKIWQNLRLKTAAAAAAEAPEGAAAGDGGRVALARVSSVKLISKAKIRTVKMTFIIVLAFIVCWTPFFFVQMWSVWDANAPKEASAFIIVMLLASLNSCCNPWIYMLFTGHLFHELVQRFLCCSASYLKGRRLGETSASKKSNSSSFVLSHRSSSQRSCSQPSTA
Test: Oxytocin binding in CHO cell membranes expressing human oxytocin receptors ([3H]oxytocin radioligand)
Settings: for inhibition at 0.1 µM / OT % inhibition @ 100 nM: 100 nM, value without parentheses; for inhibition at 0.1 µM: read-out: OT % inhibition @ 100 nM
Excerpt: Oxytocin binding in Chinese Hamster Ovary cell membranes expressing human oxytocin receptors
Chinese Hamster Ovary (CHO) cells stably transfected with the human oxytocin (cf. T. Kimura et al., U.S. Pat. No. 5,466,584 (1995) to Rohto Pharmaceutical Co. Ltd., Osaka, Japan) were obtained from Dr. M. Thibonnier, Case Western Reserve University School of Medicine, Cleveland, Ohio.
A. Passaging and Amplification of Cells:
CHO cells transfected with the human oxytocin receptors obtained from M. Thibonnier (pcDNA3.1 vector) are allowed to grow to confluency (approx. >90%) in T-150 flasks under sterile conditions, in a cell culture medium of F-12 Nutrient Mixture (HAM) with L-glutamine (Gibco Cat. #11765-054) containing 15 mM HEPES (Gibco Cat. #15630-080), 1% antibiotic/antimycotic (add 5 mL 100×, Gibco Cat. #15240-062 per 500 mL F-12), 400 μg/mL of Geneticin (add 4 mL of 50 mg/mL per 500 mL F-12) and 10% Fetal Bovine Serum (Qualified, heat inactivated, Gibco Cat. #16140-063). The medium is removed by aspiration and the cells are washed with 10 mL of Hank's Balanced Salt solution (Gibco Cat. #14175-095). The salt solution is removed by aspiration and the cells trypsinized with 5 mL of trypsin-EDTA (0.05% trypsin, 0.53 mM EDTA-4Na, Gibco Cat. #25300-070) for 1 min The trypsin is removed by aspiration and the cells dislodged by tapping. Cell Culture medium (e.g. 30 mL for 1:30 split) is immediately added and mixed well to inactivate trypsin. 1 mL of detached cells is added to new culture flasks containing fresh Cell Culture medium (e.g. into 25 mL per T-150 flask), and mixed gently. The cells are incubated at 37° C. in 5% CO2. The medium is changed at 3 to 4 days interval (or as appropriate). The cells grow to confluency (approx. >75%-95%) within 7-8 days. All steps are done under sterile conditions.
The cells are washed twice gently with Hank's Balanced Salt solution (eg, use 10 mL per T-150 flask). The excess is removed and the cells bathed for 15-30 min. in an enzyme-free Cell Dissociation Buffer (eg, use 8 mL Hank's Based, Gibco Cat. #13150-016 per T-150 flask) until cells are loosened. The contents are transferred to centrifuge tubes (50 mL size) kept in ice bath. All subsequent steps are done at 4° C. The tubes are centrifuged at 300×g for 15 min (1380 rpm on SORVAL, Model RT6000D, using rotor for 50 mL tubes). The supernatant is discarded and the cells suspended in homogenizing buffer (10 mM Tris-HCl containing 0.25 M sucrose and 1 mM EDTA, pH 7.4) ensuring that the volume of the buffer is about ten times the volume of the cell pellet. The cells are pooled into a centrifuge tube (50 mL) and homogenized with Polytron at setting 6 for 10 sec. The homogenate is transferred into a Potter-Elvjehm homogenizer and homogenized with 3 strokes. The homogenate is centrifuged at 1500×g for 10 min at 4° C. (3100 rpm using SORVAL, model RT6000D, using rotor for 50 mL tubes). The pellet is discarded. The supernatant is centrifuged at 100,000×g for 60 min. at 4° C. (Beckman L8-80M ultracentrifuge; spin at 37,500 rpm with rotor type 70 Ti for 50 mL tubes; 38,000 rpm with type 80Ti for 15 mL tubes; or 35,800 rpm with rotor type 45Ti). The supernantant is discarded and the pellet suspended in 3 to 4 mL of Tris buffer (50 mM TRIS-HCl, pH 7.4). The protein content is estimated by the Bradford or Lowry method. The volume of the membrane suspension is adjusted with the membrane buffer (50 mM Tris-HCl containing 0.1% BSA and 0.1 mM PMSF) to give 3.0 mg/mL (or as appropriate) of protein. The membranes are aliquoted and stored at −70° C.
C. Radioligand Binding Assay:
In wells of a 96-well format microtiter plate, is added 90, 110 or 130 μL (to make up a final volume of 200 μL) of assay buffer containing 50 mM of Tris-HCl (pH 7.4), […], 1 mg % aprotinin, 1 mg % leupeptin, 2 mg % 1,10-phenanthroline, 10 mg % trypsin inhibitor, and 0.1 mM PMSF. The inhibitors are added on the day of the experiment. […]

| SMILES | inhibition at 0.1 µM [%] | OT % inhibition @ 100 nM [%] | other results |
| --- | --- | --- | --- |
| Cc1cc(C(=O)N2Cc3ccc(C(=O)N[C@H](CO)C(=O)O)n3Cc3ccccc32)ccc1C1=CCCCC1 [Example 14, (2R)-2-{[10-(4-Cyclohex-1-en-1-yl-3-methyl-benzoyl)-10,11-dihydro-5H-pyrrolo[2,1-c][1,4]benzodiazepine-3-carbonyl]-amino}-3-hydroxy-propionic acid] | 50 | – | – |
| Cc1cc(C(=O)N2Cc3ccc(C(=O)O)n3Cc3ccccc32)ccc1C1=CCCc2ccccc21 [Example 15B, 10-[4-(3,4-Dihydro-naphthalen-1-yl)-3-methyl-benzoyl]-10,11-dihydro-5H-pyrrolo[2,1-c][1,4]benzodiazepine-3-carboxylic acid] | 19 | – | – |
| Cc1cc(C(=O)N2Cc3ccc(C(=O)N(C)C[C@H](O)[C@@H](O)[C@H](O)[C@H](O)CO)n3Cc3ccccc32)ccc1C1=CCCc2ccccc21 [Example 15] | – | – | IC50 (value in parentheses, read-out: OT (IC50)): 3.19 nM |
| Cc1cc(C(=O)N2Cc3ccc(C(=O)N(CCO)CCO)n3Cc3ccccc32)ccc1C1=CCCc2ccccc21 [Example 16, {10-[4-(3,4-Dihydro-naphthalen-1-yl)-3-methyl-benzoyl]-10,11-dihydro-5H-pyrrolo[2,1-c][1,4]benzodiazepin-3-yl}-3-carboxylic acid bis-(2-hydroxy-ethyl)-amide] | – | 98 | – |
| Cc1cc(C(=O)N2Cc3ccc(C(=O)N4CCN(CCO)CC4)n3Cc3ccccc32)ccc1C1=CCCCC1 [Example 17, {10-[4-(1-Cyclohex-1-en-1-yl)-3-methylbenzoyl]-10,11-dihydro-5H-pyrrolo[2,1-c][1,4]benzodiazepin-3-yl}[4-(2-hydroxyethyl)-1-piperazinyl]methanone] | – | 88 | – |
